Reference: article PMC13128454, “Mutant p53 protein accumulation is selectively targetable by proximity-inducing drugs” (Nature Chemical Biology, 2025)
Several values for one entry are separate records, joined by “and”; a condition that tells them apart may be missing. Identical values can stand only once. Like-named read-outs stand apart in the source and are kept apart here. Each block holds one compound with its values, some of them ahead of it.

Key:
Format in all cases: cell-based
parental 293T cells = experiment: cell-cycle analysis (DNA content, DAPI flow cytometry); conditions: 1 day; for 2N / 4N / Right_of_Gate1 (replicates) / Right_of_Gate2 (replicates): WT
Protocol: Cells were split into a 10-cm dish at low confluency (20%) and grown overnight. Cells were synchronized using overnight treatment with palbociclib (150 nM), washed and split into a six-well plate for treatment with compound for 24 h. Cells were harvested by trypsinization, washed twice with cold 1× PBS, fixed by dropwise addition of ice-cold 70% ethanol while vortexing and incubated overnight (4 °C). Fixed samples were centrifuged at 1,000g for 5 min and 70% ethanol was removed. Cells were washed twice with 1× PBS + 1% BSA before DNA labeling with 1 µg ml^−1 DAPI for 10 min at room temperature, before being analyzed for DNA content by flow cytometry (Beckman CytoFLEX LX).

[1] = test system: Calu-1 cells stably expressing Halo–p53 WT (FL)–mCherry–2A–mTagBFP2-V5; experiment: CellTiter-Glo cell viability; conditions: for mean_norm: Cell_Type WT; for replicates (raw CTG signal): p53_construct WT, CTG 4 days
Protocol: (§1) Cells were plated in 384-well plates (typically 1,500 cells per well) with varying concentrations of compounds, with a total volume of 50 μl per well. CTG reagent was added (25 μl) to the solutions, mixed and read out using an EnVision 2105 multimode plate reader.

[2] = test system: Calu-1 cells stably expressing Halo–p53-Y220C (FL)–mCherry–2A–mTagBFP2-V5; experiment: CellTiter-Glo cell viability; conditions: Cell_Type Y220C
Protocol: as §1

[3] = biological target: T1, p53-Y220C–PLK1 ternary complex (Homo sapiens, UniProt P04637+P53350, M133L/N239Y/N268D/V203A/Y220C); experiment: NanoBiT ternary complex assay in cotransfected 293T cells; conditions: for NLuc Signal, Average: 0 nM: 323
T1 construct: NLS–LgBiT–p53-Y220C (DBD) and mEGFP–PLK1–SmBiT; expressed in transfected cells; host or cells: 293T cells, transient cotransfection
Source text: After 1 day, the cells were passaged into 384-well plates and treated with varying concentrations of compound.

[4] = test system: p53 transcriptional targets in Huh7 cells (TP53^Y220C/Y220C); experiment: Huh7 RNA-seq and GSEA; conditions: 4 μM, 24 h, versus DMSO
Protocol: Huh7 cells were passaged into six-well plates and treated with PMV6 (4 μM), p53-01 (4 μM) or DMSO for 24 h. Cells were washed once with cold PBS. Subsequently, TRIzol (Invitrogen) was added to cells and, following the manufacturer’s protocol, RNA was extracted. RNA concentration was monitored using a Qubit fluorometer (Thermo Fisher) and RNA integrity was analyzed using an Agilent Bioanalyzer. The NEBNext Ultra II RNA library prep kit (Illumina) was used to prepare an RNA-seq library. A NovaSeq 6000 machine (Illumina) was used for paired-end 150-bp RNA-seq. STAR/RSEM[68],[71] was used to align RNA-seq reads to the GENCODE v38 transcript ref.[72] and generate a count matrix. Raw counts were rounded and DESeq2 was used for downstream analysis. A preranked GSEA[74] was performed using the DESeq2 t statistic (versus DMSO-treated cells) as a rank metric using the Fischer p53 targets geneset.

BxPC-3 cells = experiment: CellTiter-Glo cell viability; conditions: BXPC3; for mean_norm (normalized viability): 4 day
Protocol: as §1

[5] = test system: Halo–p53-Y220C ΔTAD–mCherry 293T cells; experiment: 3-week culture with compound, mCherry^− fraction by FACS; conditions: 250 nM, 3 weeks
[6] = Conc 0.38 (unit not given; p53-01 in μM, BI2536 in nM)
[7] = Conc 0.75 (unit not given; p53-01 in μM, BI2536 in nM)
[8] = Conc 1.50 (unit not given; p53-01 in μM, BI2536 in nM)
[9] = Conc 10.00 (unit not given; per b27 BI2536 in nM)
[10] = Concentration 2.44141 nM, 1 day
[11] = Concentration 4.88281 nM, 1 day
[12] = Concentration 9.76562 nM, 1 day
[13] = Concentration 19.5312 nM, 1 day
[14] = Concentration 39.0625 nM, 1 day

SMILES: CC[C@@H]1C(=O)N(C)c2cnc(Nc3ccc(C(=O)NC4CCN(C)CC4)cc3OC)nc2N1C1CCCC1 [BI2536]
2N (parental 293T cells; [6]): 60.20
4N (parental 293T cells; [6]): 37.88
Right_of_Gate1 (replicates) (parental 293T cells; [6]): 39.80 and 40.72 and 40.28
Right_of_Gate2 (replicates) (parental 293T cells; [6]): 1.92 and 1.75 and 1.63
2N (parental 293T cells; [7]): 60.97
4N (parental 293T cells; [7]): 37.16
Right_of_Gate1 (replicates) (parental 293T cells; [7]): 39.03 and 39.73 and 39.74
Right_of_Gate2 (replicates) (parental 293T cells; [7]): 1.87 and 1.62 and 1.66
2N (parental 293T cells; [8]): 59.07
4N (parental 293T cells; [8]): 38.46
Right_of_Gate1 (replicates) (parental 293T cells; [8]): 40.93 and 41.63 and 42.56
Right_of_Gate2 (replicates) (parental 293T cells; [8]): 2.47 and 2.39 and 2.53
2N (parental 293T cells; [9]): 2.57
4N (parental 293T cells; [9]): 4.74
Right_of_Gate1 (replicates) (parental 293T cells; [9]): 97.43 and 97.32 and 97.36
Right_of_Gate2 (replicates) (parental 293T cells; [9]): 92.69 and 91.65 and 92.21
mean_norm ([1]; Concentration 0.00976562): 0.9965
mean_norm ([1]; Concentration 0.0195312): 0.9819
mean_norm ([1]; Concentration 0.0390625): 0.9464
mean_norm ([1]; Concentration 0.078125): 0.9231
mean_norm ([1]; Concentration 0.15625): 0.8923
mean_norm ([1]; Concentration 0.3125): 0.9222
mean_norm ([1]; Concentration 0.625): 0.8706
mean_norm ([1]; Concentration 1.25): 0.9152
mean_norm ([1]; Concentration 2.5): 0.732
mean_norm ([1]; Concentration 5): 0.654
replicates (raw CTG signal) ([1]; Compound_conc 0.0488281): 244635 and 211925 and 234768 and 234225
replicates (raw CTG signal) ([1]; Compound_conc 0.0976562): 273323 and 237458 and 247150 and 303994
replicates (raw CTG signal) ([1]; Compound_conc 0.195312): 238397 and 225982 and 259666 and 218737
replicates (raw CTG signal) ([1]; Compound_conc 0.390625): 236109 and 227126 and 240832 and 277749
replicates (raw CTG signal) ([1]; Compound_conc 0.78125): 245303 and 237908 and 252002 and 245374
replicates (raw CTG signal) ([1]; Compound_conc 1.5625): 272283 and 224772 and 244085 and 261410
replicates (raw CTG signal) ([1]; Compound_conc 3.125): 243376 and 233836 and 240215 and 246677
replicates (raw CTG signal) ([1]; Compound_conc 6.25): 186650 and 172938 and 193716 and 217878
replicates (raw CTG signal) ([1]; Compound_conc 12.5): 153573 and 146180 and 148955 and 165621
replicates (raw CTG signal) ([1]; Compound_conc 25): 156770 and 147371 and 141939 and 149390
replicates (raw CTG signal) ([1]; Compound_conc 50): 121176 and 111722 and 112653 and 125709
replicates (raw CTG signal) ([1]; Compound_conc 100): 91299 and 91521 and 110253 and 107241
mean_norm ([2]; Concentration 0.00976562): 1.033
mean_norm ([2]; Concentration 0.0195312): 1.042
mean_norm ([2]; Concentration 0.0390625): 1.012
mean_norm ([2]; Concentration 0.078125): 1.001
mean_norm ([2]; Concentration 0.15625): 1.013
mean_norm ([2]; Concentration 0.3125): 0.9845
mean_norm ([2]; Concentration 0.625): 0.8987
mean_norm ([2]; Concentration 1.25): 0.7731
mean_norm ([2]; Concentration 2.5): 0.741
mean_norm ([2]; Concentration 5): 0.654

EC50 ([3]; 24 h, n = 4, read-out: NanoBiT EC50): 2120 nM
EC50 ([3]; 1 day, n = 6, Fig. 3b, read-out: EC50 NanoBiT ternary complex formation): 1400 nM
NLuc Signal (replicate) ([3]; Concentration 1.2207 nM, 1 day): 300 and 316 and 296 and 324 and 308
NLuc Signal, Average ([3]; Concentration 1.2207 nM, 1 day): 310
NLuc Signal, Average [3, 10]: 339.333
NLuc Signal (replicate) [3, 11]: 316 and 344 and 284 and 312 and 332
NLuc Signal, Average [3, 11]: 317.333
NLuc Signal, Average [3, 12]: 323.333
NLuc Signal, Average [3, 13]: 322.667
NLuc Signal, Average [3, 14]: 358
NLuc Signal (replicate) ([3]; Concentration 78.125 nM, 1 day): 312 and 292 and 400 and 392 and 356
NLuc Signal, Average ([3]; Concentration 78.125 nM, 1 day): 351.333
NLuc Signal, Average ([3]; Concentration 156.25 nM, 1 day): 353.333
NLuc Signal (replicate) ([3]; Concentration 312.5 nM, 1 day): 428 and 364 and 392 and 404 and 488
NLuc Signal, Average ([3]; Concentration 312.5 nM, 1 day): 413.333
NLuc Signal, Average ([3]; Concentration 625 nM, 1 day): 446
NLuc Signal (replicate) ([3]; Concentration 1250 nM, 1 day): 704 and 792 and 644 and 588
NLuc Signal, Average ([3]; Concentration 1250 nM, 1 day): 660
NLuc Signal (replicate) ([3]; Concentration 2500 nM, 1 day): 988 and 1108 and 1092 and 1436 and 1288
NLuc Signal, Average ([3]; Concentration 2500 nM, 1 day): 1167.33
NLuc Signal, Average ([3]; Concentration 5000 nM, 1 day): 1222.67
NLuc Signal, Average ([3]; Concentration 10000 nM, 1 day): 1201.33
NanoBiT mean_norm ([3]; Concentration 19.5312): 1.047
NanoBiT mean_norm ([3]; Concentration 39.0625): 1.0545
NanoBiT mean_norm ([3]; Concentration 78.125): 1.0649
NanoBiT mean_norm ([3]; Concentration 156.25): 1.0584
NanoBiT mean_norm ([3]; Concentration 312.5): 1.026
NanoBiT mean_norm ([3]; Concentration 625): 1.182
NanoBiT mean_norm ([3]; Concentration 1250): 1.238
NanoBiT mean_norm ([3]; Concentration 2500): 1.362
NanoBiT mean_norm ([3]; Concentration 5000): 1.592
NanoBiT mean_norm ([3]; Concentration 10000): 1.5997
ternary complex formation between p53-Y220C and PLK1 ([3]; NanoBiT, 1 day): induce ternary complex formation
Max_effect ([3]; sheet 5C): 1.5997
EC50 ([3]; sheet 5C, read-out: EC50): 2120 nM
IC50 (BxPC-3 cells; Homo sapiens, BXPC-3, 96 h, 4 day treatment): 8250 nM
SMILES: CC[C@@H]1C(=O)N(C)c2cnc(Nc3ccc(C(=O)NCCOCCOCCOCCOCCC(=O)N4CCC(Nc5cccc6c5cc(C#CCNc5ccc(S(C)(=O)=O)cc5OC)n6CC(F)(F)F)CC4)cc3OC)nc2N1C1CCCC1 [p53-01, PMV6-PEG4-BI2536]
NLuc Signal (replicate) [3, 10]: 356 and 348 and 308 and 360 and 340 and 324
NLuc Signal (replicate) [3, 12]: 328 and 336 and 296 and 308 and 312 and 360
NLuc Signal (replicate) [3, 13]: 352 and 360 and 304 and 296 and 324 and 300
NLuc Signal (replicate) [3, 14]: 404 and 356 and 324 and 368 and 332 and 364
NLuc Signal (replicate) ([3]; Concentration 156.25 nM, 1 day): 380 and 352 and 372 and 324 and 360 and 332
NLuc Signal (replicate) ([3]; Concentration 625 nM, 1 day): 484 and 444 and 472 and 448 and 420 and 408
NLuc Signal (replicate) ([3]; Concentration 5000 nM, 1 day): 1240 and 1080 and 1140 and 1304 and 1104 and 1468
NLuc Signal (replicate) ([3]; Concentration 10000 nM, 1 day): 1052 and 1356 and 1056 and 1192 and 1180 and 1372
DNA content (parental 293T cells; 0.75 μM, synchronized cells): unaffected
2N (parental 293T cells; [6]): 59.15
4N (parental 293T cells; [6]): 37.20
Right_of_Gate1 (replicates) (parental 293T cells; [6]): 40.85 and 40.98 and 41.52
Right_of_Gate2 (replicates) (parental 293T cells; [6]): 3.65 and 3.77 and 3.58
2N (parental 293T cells; [7]): 59.00
4N (parental 293T cells; [7]): 37.55
Right_of_Gate1 (replicates) (parental 293T cells; [7]): 41.00 and 43.44 and 43.05
Right_of_Gate2 (replicates) (parental 293T cells; [7]): 3.45 and 3.41 and 3.53
2N (parental 293T cells; [8]): 35.77
4N (parental 293T cells; [8]): 52.80
Right_of_Gate1 (replicates) (parental 293T cells; [8]): 64.23 and 64.42 and 63.80
Right_of_Gate2 (replicates) (parental 293T cells; [8]): 11.43 and 12.05 and 12.32
normalized enrichment score (NES), Fischer p53 targets [4]: 1.33
p5301_AUC_to_10uM (BxPC-3 cells): 0.6983
mean_norm (normalized viability) (BxPC-3 cells; Concentration 625): 0.9363
mean_norm (normalized viability) (BxPC-3 cells; Concentration 1250): 0.9354
mean_norm (normalized viability) (BxPC-3 cells; Concentration 2500): 0.8133
mean_norm (normalized viability) (BxPC-3 cells; Concentration 5000): 0.7027
expansion of mCherry^− fraction [5]: 6.9 fold
